Assay results as given in patent US20250215029A1 (Recludix Pharma, Inc., priority 2022, published 2025).
Like-named read-outs stand apart in the source and are kept apart here.

Legend:
[1] = target: T1, Recombinant STAT6 protein (STAT6 (W123-T658)) (Homo sapiens, UniProt P42226); experiment: STAT6 Fluorescence Polarization (FP) Assay; format: binding; details: probe 5-FAM-Ap[…]-NH2 2 nM, 45-minute incubation
T1 construct: Recombinant STAT6 protein (STAT6 (W123-T658))
T1 sequence (P42226 123-658): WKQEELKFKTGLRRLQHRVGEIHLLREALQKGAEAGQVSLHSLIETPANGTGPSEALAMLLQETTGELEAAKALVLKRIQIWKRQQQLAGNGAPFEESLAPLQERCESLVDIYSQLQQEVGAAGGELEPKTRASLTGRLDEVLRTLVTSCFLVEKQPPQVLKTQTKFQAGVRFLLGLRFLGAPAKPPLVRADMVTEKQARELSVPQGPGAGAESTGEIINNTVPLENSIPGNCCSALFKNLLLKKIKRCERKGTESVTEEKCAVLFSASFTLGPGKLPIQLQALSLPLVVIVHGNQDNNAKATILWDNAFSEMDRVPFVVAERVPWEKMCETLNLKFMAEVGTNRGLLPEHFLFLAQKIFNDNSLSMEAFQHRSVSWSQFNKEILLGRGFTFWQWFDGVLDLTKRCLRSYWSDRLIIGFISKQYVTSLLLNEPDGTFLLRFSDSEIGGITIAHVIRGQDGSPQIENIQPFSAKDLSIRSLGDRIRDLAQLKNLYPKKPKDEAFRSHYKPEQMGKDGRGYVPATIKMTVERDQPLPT
How it was run: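 Fluorescence polarization (mP) read-out: 250 nM STAT6 (W123-T658) plus 2 nM 5-FAM phosphotyrosine peptide, 45 min, room temperature, 1% DMSO. IC50 by nonlinear fit of mP against log compound concentration.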

[2] = target: T2, Recombinant STAT3 protein (STAT3 (G127-I722)) (Homo sapiens, UniProt P40763); experiment: STAT3 Fluorescence Polarization (FP) Assay; format: binding; details: probe 5-FAM-GpYLPQTV-NH2 2 nM, 45-minute incubation
T2 construct: Recombinant STAT3 protein (STAT3 (G127-I722))
T2 sequence (P40763 127-722): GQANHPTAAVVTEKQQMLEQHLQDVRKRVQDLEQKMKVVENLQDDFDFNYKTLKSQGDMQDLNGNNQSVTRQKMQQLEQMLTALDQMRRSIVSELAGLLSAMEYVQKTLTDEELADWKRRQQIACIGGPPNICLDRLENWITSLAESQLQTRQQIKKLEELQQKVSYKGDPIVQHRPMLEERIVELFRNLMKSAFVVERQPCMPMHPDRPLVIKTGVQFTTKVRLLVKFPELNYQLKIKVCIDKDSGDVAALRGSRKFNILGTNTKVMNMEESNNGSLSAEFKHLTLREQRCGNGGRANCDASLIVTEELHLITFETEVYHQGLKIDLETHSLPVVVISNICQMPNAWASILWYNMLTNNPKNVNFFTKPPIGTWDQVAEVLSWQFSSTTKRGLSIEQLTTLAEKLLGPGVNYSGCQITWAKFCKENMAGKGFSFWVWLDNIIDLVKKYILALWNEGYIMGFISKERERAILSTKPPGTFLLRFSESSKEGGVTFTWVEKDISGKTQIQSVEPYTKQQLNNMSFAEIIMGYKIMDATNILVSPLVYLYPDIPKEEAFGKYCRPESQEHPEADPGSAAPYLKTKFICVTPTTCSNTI
How it was run: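 Read-out is fluorescence polarization (mP) after 45 min at room temperature, with IC50 fitted by nonlinear regression against log compound concentration. Mixture: 25 nM STAT3 (G127-I722), 2 nM 5-FAM-GpYLPQTV-NH2 phosphopeptide, 10 mM HEPES pH 7.4 buffer, 1% DMSO.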

[3] = STAT6 (W123-T658) 250 nM, read-out: STAT6 (FP assay IC50 class)
[4] = STAT3 (G127-I722) 25 nM, read-out: STAT3 (FP assay IC50 class)
[5] = STAT6 250 nM, read-out: STAT6 (FP assay IC50)
[6] = STAT3 25 nM, read-out: STAT3 (FP assay IC50)

Structure (SMILES) | IC50 [1, 3] [nM] | IC50 [2, 4] [nM] | IC50 [1, 5] [nM] | IC50 [2, 6] [nM]
CN=S(C)(=O)CC1(OC)CN(C(=O)[C@@H]2CC[C@@H]3CCC[C@H](NC(=O)c4cc5cc(C(F)(F)P(=O)(O)O)ccc5s4)C(=O)N32)C1 (stereo partly drawn) [Compound 827, ((2-(((3S,6S,9aS)-3-(3-((N,S-dimethyl-sulfonimidoyl)methyl)-3-methoxyazetidine-1-carbonyl)-5-oxooctahydro-1H-pyrrolo[1,2-a]azepin-6-yl)carbamoyl)benzo [b]thiophen-5-yl)difluoromethyl) phosphonic acid] | 3000 to 30000 | 100 to 1000 | – | –
O=C(N[C@H]1CCC[C@H]2CC[C@@H](C(=O)N3CC(c4cncnc4O)C3)N2C1=O)c1cc2cc(CP(=O)(O)O)ccc2s1 [Compound 605, ((2-(((3S,6S,9aS)-3-(3-(4-hydroxypyrimidin-5-yl)azetidine-1-carbonyl)-5-oxooctahydro-1H-pyrrolo[1,2-a]azepin-6-yl)carbamoyl)benzo [b]thiophen-5-yl)methyl) phosphonic acid] | 3000 to 30000 | < 100 | – | –
O=C(N[C@H]1CCCC[C@H]2CC[C@@H](C(=O)N3CC4(CC(C5CC5)=NO4)C3)N2C1=O)c1cc2cc(C(F)(F)P(=O)(O)O)ccc2s1 [Compound 72, ((2-(((3S,6S,10aS)-3-(7-cyclopropyl-5-oxa-2,6-diazaspiro[3.4]oct-6-ene-2-carbonyl)-5-oxodecahydropyrrolo [1,2-a]azocin-6-yl)carbamoyl)benzo[b]thiophen-5-yl)difluoromethyl) phosphonic acid] | – | – | 300 to 3000 | 100 to 1000
O=C(N[C@H]1CCCC[C@H]2CC[C@@H](C(=O)N3CCC(c4cc[nH]c(=O)c4)C3)N2C1=O)c1ccc2ccc(C(F)(F)P(=O)(O)O)cc2c1 (stereo partly drawn) [Compound 866, (difluoro(7-(((3S,6S,10aS)-5-oxo-3-(3-(2-oxo-1,2-dihydropyridin-4-yl)pyrrolidine-1-carbonyl)decahydropyrrolo[1,2-a]azocin-6-yl)carbamoyl)naphthalen-2-yl)methyl) phosphonic acid] | ≤ 300 | 100 to 1000 | – | –
O=C(N[C@H]1CCC[C@H]2CC[C@@H](C(=O)N3CCn4cncc4C3)N2C1=O)c1cc2cc(C(F)(F)P(=O)(O)O)ccc2s1 [Compound 203, (difluoro(2-(((3S,6S,9aS)-5-oxo-3-(5,6,7,8-tetrahydroimidazo[1,5-a]pyrazine-7-carbonyl)octahydro-1H-pyrrolo[1,2-a]azepin-6-yl)carbamoyl)benzo[b]thiophen-5-yl)methyl)phosphonic acid] | 300 to 3000 | 100 to 1000 | – | –
COC(=O)N1CC[C@@H](NC(=O)[C@@H]2CC[C@@H]3CCCC[C@H](NC(=O)c4cc5cc(C(F)P(=O)(O)O)ccc5s4)C(=O)N32)C1 (stereo partly drawn) [Compound 522, (fluoro(2-(((3S,6S,10aS)-3-(((R)-1-(methoxycarbonyl)pyrrolidin-3-yl)carbamoyl)-5-oxodecahydropyrrolo[1,2-a]azocin-6-yl)carbamoyl)benzo[b]thiophen-5-yl)methyl)phosphonic acid] | 300 to 3000 | 1000 to 10000 | – | –
CN(C(=O)[C@@H]1CC[C@@H]2CCCC[C@H](NC(=O)c3cc4cc(C(F)(F)P(=O)(O)O)ccc4[nH]3)C(=O)N21)c1ccccc1 [Compound 1, (difluoro(2-(((3S,6S,10aS)-3-(methyl(phenyl)carbamoyl)-5-oxodecahydropyrrolo[1,2-a]azocin-6-yl)carbamoyl)-1H-indol-5-yl)methyl)phosphonic acid] | – | – | 300 to 3000 | > 10000
COc1cncc(C2CN(C(=O)[C@@H]3CC[C@@H]4CCC[C@H](NC(=O)c5cc6cc(CP(=O)(O)O)ccc6s5)C(=O)N43)C2)c1C [Compound 506, ((2-(((3S,6S,9aS)-3-(3-(5-methoxy-4-methylpyridin-3-yl)azetidine-1-carbonyl)-5-oxooctahydro-1H-pyrrolo[1,2-a]azepin-6-yl)carbamoyl)benzo[b]thiophen-5-yl)methyl)phosphonic acid] | 3000 to 30000 | 1000 to 10000 | – | –
Cc1cc(N(C)C)ncc1C1CN(C(=O)[C@@H]2CC[C@@H]3CCC[C@H](NC(=O)c4cc5cc(CP(=O)(O)O)ccc5s4)C(=O)N32)C1 [Compound 507, ((2-(((3S,6S,9aS)-3-(3-(6-(dimethylamino)-4-methylpyridin-3-yl)azetidine-1-carbonyl)-5-oxooctahydro-1H-pyrrolo[1,2-a]azepin-6-yl)carbamoyl)benzo[b]thiophen-5-yl)methyl)phosphonic acid] | 3000 to 30000 | 1000 to 10000 | – | –

More lines, now with the values ahead:

IC50 [1, 3] [nM] | IC50 [2, 4] [nM] | IC50 [1, 5] [nM] | IC50 [2, 6] [nM] | Structure (SMILES)
– | – | 300 to 3000 | 100 to 1000 | O=C(N[C@H]1CCCC[C@H]2CC[C@@H](C(=O)N3CC(Oc4ccccc4)C3)N2C1=O)c1cc2cc(C(F)(F)P(=O)(O)O)ccc2s1 [Compound 39, (difluoro(2-(((3S,6S,10aS)-5-oxo-3-(3-phenoxyazetidine-1-carbonyl)decahydropyrrolo [1,2-a]azocin-6-yl)carbamoyl)benzo[b]thiophen-5-yl)methyl) phosphonic acid]
3000 to 30000 | 100 to 1000 | – | – | O=C(N[C@H]1CCC[C@H]2CC[C@@H](C(=O)N3CC(c4cccnc4C(F)F)C3)N2C1=O)c1cc2cc(CP(=O)(O)O)ccc2s1 [Compound 562, ((2-(((3S,6S,9aS)-3-(3-(2-(difluoromethyl)pyridin-3-yl)azetidine-1-carbonyl)-5-oxooctahydro-1H-pyrrolo[1,2-a]azepin-6-yl)carbamoyl)benzo[b]thiophen-5-yl)methyl)phosphonic acid]
3000 to 30000 | 100 to 1000 | – | – | O=C(N[C@H]1CC[C@H]2CC[C@@H](C(=O)N3CC(c4ccccn4)C3)N2C1=O)c1cc2cc(C(F)(F)P(=O)(O)O)ccc2s1 [Compound 728, (difluoro(2-(((3S,6S,8aS)-5-oxo-3-(3-(pyridin-2-yl)azetidine-1-carbonyl)octahydroindolizin-6-yl)carbamoyl)benzo [b]thiophen-5-yl)methyl) phosphonic acid]
3000 to 30000 | 100 to 1000 | – | – | O=C(N[C@H]1CCC[C@H]2CC[C@@H](C(=O)N3CC(c4ccccc4N4CCOCC4)C3)N2C1=O)c1cc2cc(C(F)P(=O)(O)O)ccc2s1 (stereo partly drawn) [Compound 670, (fluoro(2-(((3S,6S,9aS)-3-(3-(2-morpholinophenyl)azetidine-1-carbonyl)-5-oxooctahydro-1H-pyrrolo[1,2-a]azepin-6-yl)carbamoyl)benzo [b]thiophen-5-yl)methyl) phosphonic acid]
≤ 300 | 1000 to 10000 | – | – | O=C(N[C@H]1CCCC[C@H]2CC[C@@H](C(=O)N3CC(c4cccnc4)CC34CC4)N2C1=O)c1cc2cc(C(F)P(=O)(O)O)ccc2s1 (stereo partly drawn) [Compound 912, (fluoro(2-(((3S,6S,10aS)-5-oxo-3-(6-(pyridin-3-yl)-4-azaspiro[2.4]heptane-4-carbonyl)decahydropyrrolo[1,2-a]azocin-6-yl)carbamoyl)benzo [b]thiophen-5-yl)methyl) phosphonic acid]
3000 to 30000 | < 100 | – | – | Cn1cccc(C2CN(C(=O)[C@@H]3CC[C@@H]4CCC[C@H](NC(=O)c5cc6cc(C(F)P(=O)(O)O)ccc6s5)C(=O)N43)C2)c1=O (stereo partly drawn) [Compound 628, (fluoro(2-(((3S,6S,9aS)-3-(3-(1-methyl-2-oxo-1,2-dihydropyridin-3-yl)azetidine-1-carbonyl)-5-oxooctahydro-1H-pyrrolo[1,2-a]azepin-6-yl)carbamoyl)benzo [b]thiophen-5-yl)methyl) phosphonic acid]
3000 to 30000 | < 100 | – | – | CN(C)c1ncncc1C1CN(C(=O)[C@@H]2CC[C@@H]3CCC[C@H](NC(=O)c4cc5cc([C@@H](F)P(=O)(O)O)ccc5s4)C(=O)N32)C1 (single isomer, unassigned) [Compound 667]
3000 to 30000 | < 100 | – | – | COc1ccncc1C1CN(C(=O)[C@@H]2CC[C@@H]3CCCC[C@H](NC(=O)c4cc5cc(C(F)P(=O)(O)O)ccc5s4)C(=O)N32)C1 (stereo partly drawn) [Compound 236, (fluoro(2-(((3S,6S,10aS)-3-(3-(4-methoxypyridin-3-yl)azetidine-1-carbonyl)-5-oxodecahydropyrrolo[1,2-a]azocin-6-yl)carbamoyl)benzo[b]thiophen-5-yl)methyl)phosphonic acid]
≤ 300 | 1000 to 10000 | – | – | N#C[C@@H]1CN(C(=O)[C@@H]2CCC[C@@H]3CCC[C@H](NC(=O)c4cc5cc(C(F)P(=O)(O)O)ccc5s4)C(=O)N32)C[C@H]1c1ccccc1 (relative stereo) [Compound 551, ((2-(((4S,7S,10aS)-4-((rel-trans)-3-cyano-4-phenylpyrrolidine-1-carbonyl)-6-oxodecahydropyrido[1,2-a]azepin-7-yl)carbamoyl)benzo[b]thiophen-5-yl)fluoromethyl)phosphonic acid]
